From BindingDB's records for doi:10.1016/j.ejmech.2016.05.062 (University of Siena, 2016)

Key:
[1] = Activity at Smo in mouse C3H10T1/2 cells assessed as induction of cell differentiation into osteoblast incubated for 6 days by alkaline phosphatase assay
[2] = Agonist activity at Smo in mouse C3H10T1/2 cells assessed as induction of cell differentiation into osteoblast incubated for 6 days by alkaline phosphatase assay

EC50 [2] [µM]	SMILES	EC50 [1] [µM]
–	CCCOC(=O)c1ccc(NC(=O)c2c(O)c3ccccc3n(CCC)c2=O)cc1	2.6
–	CCCCCCn1c(=O)c(C(=O)Nc2ccc(C(=O)OCc3ccccc3)cc2)c(O)c2ccccc21	2
–	CCCCCCn1c(=O)c(C(=O)Nc2ccc(C(=O)NCCCC)cc2)c(O)c2ccccc21	5.8
–	CCCCn1c(=O)c(C(=O)Nc2ccc(C(=O)OCCC)cc2)c(O)c2ccccc21	0.8
–	C=CCn1c(=O)c(C(=O)Nc2ccc(C(=O)OCCC)cc2)c(O)c2ccccc21	3.4
–	CCCCCCn1c(=O)c(C(=O)Nc2ccc(C(=O)O)cc2)c(O)c2ccccc21	0.6
–	CCCCCCn1c(=O)c(C(=O)Nc2ccc(C(=O)OC(C)(C)C)cc2)c(O)c2ccccc21	3.1
–	CCCCCCn1c(=O)c(C(=O)Nc2ccc(C(=O)OCCC)cc2)c(O)c2ccccc21	1.2
–	CCCCCn1c(=O)c(C(=O)Nc2ccc(C(=O)OCCCC)cc2)c(O)c2ccccc21	0.6
–	CCCOC(=O)c1ccc(NC(=O)c2c(O)c3cc(C)ccc3n(CCC)c2=O)cc1	1.2
–	CCCCCCn1c(=O)c(C(=O)Nc2ccc(C(=O)OCCCC)cc2)c(O)c2ccccc21	1.5
–	CCCCCCn1c(=O)c(C(=O)Nc2ccc(C(=O)OCC)cc2)c(O)c2ccccc21	3.6
–	CCCOC(=O)c1ccc(NC(=O)c2c(O)c3cc(Cl)ccc3n(CCC)c2=O)cc1	4.9
–	CCCCCn1c(=O)c(C(=O)Nc2ccc(C(=O)OCCC)cc2)c(O)c2ccccc21	0.7
–	CCCOC(=O)c1ccc(NC(=O)c2c(O)c3cc(OC)c(OC)cc3n(CCC)c2=O)cc1	0.36
–	CCCCCn1c(=O)c(C(=O)Nc2ccc(C(=O)OCC)cc2)c(O)c2ccccc21	0.9
–	CCCOC(=O)c1ccc(NC(=O)c2c(O)c3cccc4c3n(c2=O)CCC4)cc1	0.8
–	CCCCCCn1c(=O)c(C(=O)Nc2ccc(C(=O)OC(C)C)cc2)c(O)c2ccccc21	6.5
–	CCCOC(=O)c1ccc(NC(=O)c2c(O)c3cc(F)ccc3n(CCC)c2=O)cc1	2.4
–	c1ccc2c(Oc3nc(Nc4ccc(N5CCOCC5)cc4)c4ncn(C5CCCCC5)c4n3)cccc2c1 [Purmorphamine]	0.8
0.13	CNC1CCC(N(Cc2cccc(-c3ccncc3)c2)C(=O)c2sc3ccccc3c2Cl)CC1 (stereo unspecified)	–
